Among the test systems are HCT-15 colon; HL-60(TB) leukemia; HT29 colon; K-562 leukemia; NCI-H522 lung; OVCAR-4 ovarian; RPMI-8226 leukemia; SF-295 CNS; SK-MEL-28 melanoma; SW-620 colon.
Common to all, as to assay: DTP human tumour cell line panel, 48 h

The structures appear in SMILES notation. “And” between values parts separate entries of the source, which are not always exact repeats. Identical values can stand only once.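 A five-concentration, 48-hour dose response in 96-well plates underlies each endpoint, interpolated linearly between surrounding concentrations. Here, GI50 denotes the concentration required for 50% inhibition of growth. TGI marks complete inhibition of growth.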 Some results are limits rather than exact numbers.

The term GI50 denotes the concentration giving 50% growth inhibition. As usually defined, the TGI is the concentration at which net growth stops. Lower therefore signals greater sensitivity of the cells. In the case of `CN1C=CN(Cc2ccc(-c3ccccn3)nc2)[CH-]1.CN1C=CN(Cc2ccc(-c3ccccn3)nc2)[CH-]1.[Au+3]`, the GI50 with HCT-15 colon was 1.6 µM; with HL-60(TB) leukemia, 1.22 µM; in the assay on HT29 colon, 1.96 µM; in the assay with K-562 leukemia, 0.54 µM; in the assay with NCI-H522 lung, 0.104 µM; in the assay with OVCAR-4 ovarian, 0.769 µM. Besides, the GI50 with RPMI-8226 leukemia was 1.34 µM; in the assay with SF-295 CNS, 4.87 µM; with SK-MEL-28 melanoma, 2.47 µM; in the assay with SW-620 colon it was 0.898 µM. The TGI with HCT-15 colon was over 54.6 µM; in the assay on HL-60(TB) leukemia it was 6.84 µM; in the assay with HT29 colon, over 100 µM; in the assay with K-562 leukemia, over 100 µM; in the assay with NCI-H522 lung, 0.494 µM; in the assay with OVCAR-4 ovarian it was 14.1 µM. Besides, the TGI is 20.1 µM with RPMI-8226 leukemia, over 100 µM in the assay on SF-295 CNS, 14.5 µM in the assay on SK-MEL-28 melanoma and 17.2 µM in the assay with SW-620 colon.
For the compound `Cn1cc(/C=C2\C(=O)Nc3cccnc32)c2ccccc21`, the GI50 in the assay on HCT-15 colon is over 17.3 µM; in the assay on HL-60(TB) leukemia, over 22.5 µM; in the assay with HT29 colon, 13.1 µM; in the assay on K-562 leukemia, over 18.4 µM; in the assay on NCI-H522 lung it was 14.7 µM; in the assay with OVCAR-4 ovarian, 24.8 µM. Moreover, the GI50 in the assay on RPMI-8226 leukemia is over 25 µM; with SF-295 CNS, over 25 µM; in the assay with SK-MEL-28 melanoma, over 25 µM; with SW-620 colon it was 12.6 µM. Further, the concentration for total growth inhibition (TGI) in the assay with HCT-15 colon, in the assay with HL-60(TB) leukemia, with HT29 colon, in the assay on K-562 leukemia, in the assay with NCI-H522 lung and with OVCAR-4 ovarian was over 25 µM in each case. The TGI in the assay with RPMI-8226 leukemia, with SF-295 CNS, in the assay with SK-MEL-28 melanoma and with SW-620 colon was over 25 µM in each case.
Turning to `O=c1c2c(=NCCCN3CCCC3)cc3c(=O)n(CCCN4CCCC4)c(=O)c4c(NCCCN5CCCC5)cc(c(O)n1CCCN1CCCC1)c2c4-3`, the GI50 was 6.91 µM with HCT-15 colon; 11.2 µM in the assay with HL-60(TB) leukemia; 1.51 µM in the assay with HT29 colon; 3.36 µM with K-562 leukemia; 1.44 µM with NCI-H522 lung; 2.73 µM with OVCAR-4 ovarian. Moreover, the GI50 in the assay on RPMI-8226 leukemia is 4.39 µM; in the assay on SF-295 CNS it was 1.95 µM; in the assay on SK-MEL-28 melanoma, 2.53 µM; in the assay with SW-620 colon, 1.72 µM. Besides, the TGI in the assay on HCT-15 colon is over 100 µM; with HL-60(TB) leukemia, 73.5 µM; in the assay with HT29 colon, 6.49 µM; with K-562 leukemia, over 100 µM; in the assay with NCI-H522 lung it was 5.53 µM; in the assay with RPMI-8226 leukemia, 45.8 µM. Besides, the TGI in the assay with SF-295 CNS came out at 8.61 µM; with SK-MEL-28 melanoma it was 5.31 µM; in the assay with SW-620 colon, 14.5 µM.
Consider `COc1ccccc1OCC(O)CO` (stereo unspecified), for which the GI50 with HCT-15 colon, in the assay on HL-60(TB) leukemia, in the assay with HT29 colon, with K-562 leukemia, with NCI-H522 lung and in the assay with OVCAR-4 ovarian was over 100 µM throughout. Also, the GI50 in the assay with RPMI-8226 leukemia, in the assay with SF-295 CNS, with SK-MEL-28 melanoma and in the assay on SW-620 colon was over 100 µM each time. The TGI in the assay on HCT-15 colon, in the assay on HL-60(TB) leukemia, with HT29 colon, with K-562 leukemia, in the assay with NCI-H522 lung and with OVCAR-4 ovarian was over 100 µM each time. Besides, the TGI in the assay with RPMI-8226 leukemia, in the assay with SF-295 CNS, in the assay on SK-MEL-28 melanoma and in the assay on SW-620 colon was over 100 µM throughout.
Regarding `Cc1ccc(S(=O)(=O)ON=C2CC(c3ccccc3)N(C)C(c3ccccc3)C2)cc1` (stereo unspecified), the TGI is 34.7 µM and 44.9 µM in the assay with HCT-15 colon; over 100 µM with HL-60(TB) leukemia; 54.7 µM and 57.3 µM in the assay with HT29 colon; over 100 µM in the assay on K-562 leukemia; 27.4 µM and 25.2 µM in the assay on NCI-H522 lung; 38.4 µM and 40.3 µM with OVCAR-4 ovarian. Also, the TGI was 48.2 µM in the assay on RPMI-8226 leukemia; 52.4 µM and 65.5 µM with SF-295 CNS; 54.3 µM and 49 µM in the assay on SK-MEL-28 melanoma; 38.8 µM and 31.2 µM in the assay with SW-620 colon. Moreover, the GI50 in the assay with HL-60(TB) leukemia was 7.25 µM and 19.9 µM; in the assay on K-562 leukemia it was 60.1 µM and 29.3 µM.
With `CC(Cl)CC(=O)Nc1ccc2c(c1)oc(=O)c1cc(NC(=O)CC(C)Cl)ccc12` (stereo unspecified), the GI50 was 13.2 µM with HCT-15 colon; 9.03 µM with HL-60(TB) leukemia; 12.2 µM in the assay with HT29 colon; 13.8 µM in the assay with K-562 leukemia; 15.2 µM in the assay with NCI-H522 lung; 11.3 µM with OVCAR-4 ovarian. The GI50 in the assay with RPMI-8226 leukemia is 1.46 µM; with SF-295 CNS, 10.1 µM; in the assay on SK-MEL-28 melanoma, 16.4 µM; in the assay on SW-620 colon, 33.3 µM. Besides, the TGI was found to be 45.8 µM in the assay on HCT-15 colon; 29.3 µM in the assay on HL-60(TB) leukemia; 34.5 µM in the assay on HT29 colon; 33.6 µM with K-562 leukemia; 36.8 µM with NCI-H522 lung; 29.4 µM with OVCAR-4 ovarian. For the same compound, the TGI in the assay with RPMI-8226 leukemia is 23.4 µM; in the assay on SF-295 CNS it was 36.5 µM; in the assay with SK-MEL-28 melanoma, 34.2 µM; in the assay with SW-620 colon, over 100 µM.
Take `CCn1cc(C2NC(=O)c3cc(F)ccc3N2)c2cccc(Cl)c21` (stereo unspecified): the GI50 was 0.0968 µM with HCT-15 colon; 0.121 µM in the assay with HL-60(TB) leukemia; 0.276 µM with HT29 colon; 0.0414 µM with K-562 leukemia; 0.135 µM in the assay on NCI-H522 lung; 2.53 µM in the assay on OVCAR-4 ovarian. Moreover, the GI50 in the assay on RPMI-8226 leukemia was 0.359 µM; with SF-295 CNS, 0.1 µM; with SK-MEL-28 melanoma it was 0.847 µM; in the assay with SW-620 colon it was 0.193 µM. The TGI in the assay with HCT-15 colon is over 100 µM; with HL-60(TB) leukemia it was 0.731 µM; in the assay on HT29 colon it was over 100 µM; with K-562 leukemia it was over 100 µM; in the assay with NCI-H522 lung, over 32.1 µM; in the assay with OVCAR-4 ovarian, over 100 µM. Further, the TGI was over 100 µM in the assay on RPMI-8226 leukemia, over 58.3 µM in the assay with SF-295 CNS, over 100 µM in the assay with SK-MEL-28 melanoma and over 100 µM in the assay with SW-620 colon.

These data come from PubChem BioAssay (NCI).
